Converted amounts (≈) assume the structure as drawn.
Experiments:
[1] = Human Plasma Protein Binding (Test B); assay type: in vitro ADME; conditions: fraction unbound (fu)
Outline: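 Values given as % free (fu) in human plasma, using the method of Wernevik et al. (2020). For compounds tested more than once, the arithmetic mean is given.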

[2] = Human Liver Microsomal Stability (Test C); assay type: in vitro ADME; conditions: human, liver microsomes
Outline: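 CLint (μl/min/mg protein) derived from compound depletion in human liver microsomes following a published standardized early-DMPK protocol; replicate determinations given as arithmetic mean.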

[3] = Rat Hepatocyte Stability (Test E); assay type: in vitro ADME; conditions: rat, hepatocytes, geometric mean if run multiple times
Outline: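 Intrinsic clearance in rat hepatocytes, expressed as μl/min/10^6 cells, following the literature integrated DMPK panel method. Repeat determinations combined as geometric mean.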

Solubility (Test F) = assay type: physicochemical; conditions: arithmetic mean if run multiple times
Method: The assay was conducted according to the Solubility Assay described in pages 164-167 of Wernevik, J. et al., “A Fully Integrated Assay Panel for Early Drug Metabolism and Pharmacokinetics Profiling”, Assay and Drug Development Technologies, 2020, 18(4), 157-179. Data are reported in Table 36 as solubility ([…]. Where the assay was run multiple times for the same compound, the arithmetic mean is reported.

human RXFP1 = biological target: T1, human RXFP1 (Homo sapiens, UniProt Q9HBX9); assay: RXFP1 Hu cAMP (Test A); assay type: cell-based; design: expressed in transfected cells; host or cells: Jump-In T-REx CHO-K1 cells (ThermoFisher), induced with 10 ng/ml doxycycline for 24 h; conditions: RXFP1 Hu cAMP; for EC50: read-out: Test A EC50
T1 sequence (Q9HBX9 1-757): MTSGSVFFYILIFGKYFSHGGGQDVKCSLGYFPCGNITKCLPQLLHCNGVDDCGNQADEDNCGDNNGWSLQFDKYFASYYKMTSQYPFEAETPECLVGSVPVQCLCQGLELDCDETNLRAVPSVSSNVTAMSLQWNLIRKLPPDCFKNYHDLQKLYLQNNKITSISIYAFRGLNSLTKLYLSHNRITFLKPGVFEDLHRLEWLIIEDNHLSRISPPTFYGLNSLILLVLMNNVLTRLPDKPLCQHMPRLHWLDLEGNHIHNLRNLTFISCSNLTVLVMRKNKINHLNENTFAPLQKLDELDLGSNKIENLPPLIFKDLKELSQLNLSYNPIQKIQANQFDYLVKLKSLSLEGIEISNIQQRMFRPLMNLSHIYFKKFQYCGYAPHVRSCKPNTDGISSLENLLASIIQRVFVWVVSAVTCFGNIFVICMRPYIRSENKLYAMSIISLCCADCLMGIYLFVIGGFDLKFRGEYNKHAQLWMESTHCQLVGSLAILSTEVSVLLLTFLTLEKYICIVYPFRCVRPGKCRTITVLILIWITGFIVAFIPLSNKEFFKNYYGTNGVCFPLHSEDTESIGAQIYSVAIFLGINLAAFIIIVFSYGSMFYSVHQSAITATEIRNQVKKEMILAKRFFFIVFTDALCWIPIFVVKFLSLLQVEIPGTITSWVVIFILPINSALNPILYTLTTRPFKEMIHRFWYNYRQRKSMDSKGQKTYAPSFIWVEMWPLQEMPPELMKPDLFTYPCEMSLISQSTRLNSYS
Outline: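 Cells: CHO-K1 stably carrying human RXFP1, expressed after 24 h 10 ng/ml doxycycline; 0.5 mM IBMX final, HTRF detection after 2 h at room temperature.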

Compound	Test B Human Plasma Protein Binding (% free) [1] [% free]	microsomal CLint [2] [µL/min/mg]	hepatocyte CLint [3] [µL/min/1e6 cells]	solubility (Solubility (Test F)) [µM]	Test A Sinf (human RXFP1) [%]	EC50 (human RXFP1) [nM]
COc1cc(F)c(O[C@H]2CC[C@@](C)(C(=O)O)CC2)cc1C(=O)Nc1cccc(Cl)c1C(=O)NCC1(C)CCC1 [Example 54, (1s,4s)-4-(5-((3-Chloro-2-(((1-methylcyclobutyl)methyl)carbamoyl)phenyl)carbamoyl)-2-fluoro-4-methoxyphenoxy)-1-methylcyclohexane-1-carboxylic acid]	1.1	16	13	2.8 (≈ 1.57 µg/mL)	108	490
COc1cc(F)c(O[C@H]2CC[C@@](C)(C(=O)O)CC2)cc1C(=O)N[C@@H]1CCC[C@@H]1C(=O)NCC1(CF)CC1 [Example 56, (1S,4s)-4-(2-Fluoro-5-(((1R,2S)-2-(((1-(fluoromethyl)cyclopropyl)methyl)carbamoyl)cyclopentyl)carbamoyl)-4-methoxyphenoxy)-1-methylcyclohexane-1-carboxylic acid]	21	< 3	17	980 (≈ 512 µg/mL)	105	12000
CCC(CC)CNC(=O)[C@H]1CCC[C@H]1NC(=O)c1cc(O[C@H]2CC[C@@](C)(C(=O)O)CC2)c(F)cc1OC [Example 59, (1S,4s)-4-(5-(((1R,2S)-2-((2-Ethylbutyl)carbamoyl)cyclopentyl)carbamoyl)-2-fluoro-4-methoxyphenoxy)-1-methylcyclohexane-1-carboxylic acid]	2.4	22	27	960 (≈ 500 µg/mL)	100	550
COc1cc(F)c(O[C@H]2CC[C@@](C)(C(=O)O)CC2)cc1C(=O)N[C@@H]1CCC[C@@H]1C(=O)NCC1(C)CC1 [Example 68]	14	4.4	14	> 1000	97	840
COc1cc(F)c(O[C@H]2CC[C@@](C)(C(=O)O)CC2)cc1C(=O)N[C@@H]1CCC[C@@H]1C(=O)NCC(C)(C)C#N [Example 69]	33	6.3	6.4	970 (≈ 502 µg/mL)	93	> 2700
COc1cc(C#N)c(O[C@H]2CC[C@@](C)(C(=O)O)CC2)cc1C(=O)N[C@@H]1[C@H]2CC[C@H](C2)[C@@H]1C(=O)NCC1CC1 [Example 71, (1S,4s)-4-(2-Cyano-5-(((1S,2R,3S,4R)-3-((cyclopropylmethyl)carbamoyl)bicyclo[2.2.1]heptan-2-yl)carbamoyl)-4-methoxyphenoxy)-1-methylcyclohexane-1-carboxylic acid]	17	< 3	28	940 (≈ 492 µg/mL)		390
COc1cc(C#N)c(O[C@H]2CC[C@@](C)(C(=O)O)CC2)cc1C(=O)N[C@@H]1[C@H]2CC[C@H](C2)[C@@H]1C(=O)NC1(C#N)CC1 [Example 72]	40	< 3	14	950 (≈ 508 µg/mL)	75	> 3100
COc1cc(C#N)c(O[C@H]2CC[C@@](C)(C(=O)O)CC2)cc1C(=O)N[C@@H]1[C@H]2CC[C@H](C2)[C@@H]1C(=O)N[C@H]1C[C@@H](C)C1 [Example 73]	12	11	18	850 (≈ 457 µg/mL)	114	220
COc1cc(C#N)c(O[C@H]2CC[C@@](C)(C(=O)O)CC2)cc1C(=O)N[C@@H]1[C@H]2CC[C@H](C2)[C@@H]1C(=O)NCC1(O)CCCC1 [Example 74]	26	< 3	10	920 (≈ 522 µg/mL)		> 5000
COc1cc(C#N)c(O[C@H]2CC[C@@](C)(C(=O)O)CC2)cc1C(=O)N[C@@H]1[C@H]2CC[C@H](C2)[C@@H]1C(=O)NCC1(CO)CCC1 [Example 75]	25	< 3	14	880 (≈ 500 µg/mL)	110	
COc1cc(C#N)c(O[C@H]2CC[C@@](C)(C(=O)O)CC2)cc1C(=O)N[C@@H]1[C@H]2CC[C@H](C2)[C@@H]1C(=O)NCC(C)(C)O [Example 76]	47	< 3	12	790 (≈ 428 µg/mL)	100	41000
COc1cc(C#N)c(O[C@H]2CC[C@@](C)(C(=O)O)CC2)cc1C(=O)N[C@@H]1[C@H]2CC[C@H](C2)[C@@H]1C(=O)NCC1(C(C)C)CC1 [Example 78]	6.9	44	37	820 (≈ 464 µg/mL)	120	
COCC1(CNC(=O)[C@H]2[C@@H]3CC[C@@H](C3)[C@H]2NC(=O)c2cc(O[C@H]3CC[C@@](C)(C(=O)O)CC3)c(C#N)cc2OC)CC1 [Example 79]	28	7.5	31	980 (≈ 556 µg/mL)		> 5000
COc1cc(C#N)c(O[C@H]2CC[C@@](C)(C(=O)O)CC2)cc1C(=O)N[C@@H]1[C@H]2CC[C@H](C2)[C@@H]1C(=O)NCC1(OC)CCC1 [Example 80]	16	8	23	890 (≈ 505 µg/mL)	105	410
COc1cc(C#N)c(O[C@H]2CC[C@@](C)(C(=O)O)CC2)cc1C(=O)N[C@@H]1[C@H]2CC[C@H](C2)[C@@H]1C(=O)NC12CC3C[C@H](C1)C[C@H](C3)C2 [Example 81]	2.7	97	57	250 (≈ 151 µg/mL)	111	31
COc1cc(C#N)c(O[C@H]2CC[C@@](C)(C(=O)O)CC2)cc1C(=O)N[C@@H]1[C@H]2CC[C@H](C2)[C@@H]1C(=O)NCC1CCCCCC1 [Example 82]	2.5	54	41	330 (≈ 191 µg/mL)	114	32
CCCC1(CNC(=O)[C@H]2[C@@H]3CC[C@@H](C3)[C@H]2NC(=O)c2cc(O[C@H]3CC[C@@](C)(C(=O)O)CC3)c(C#N)cc2OC)CCC1 [Example 83]	1.6	130	25	250 (≈ 145 µg/mL)	111	17
COc1cc(C#N)c(O[C@H]2CC[C@@](C)(C(=O)O)CC2)cc1C(=O)N[C@@H]1[C@H]2CC[C@H](C2)[C@@H]1C(=O)NCC1C(C)(C)C1(C)C [Example 84]	4	160	19	340 (≈ 197 µg/mL)	112	15
COc1cc(C#N)c(O[C@H]2CC[C@@](C)(C(=O)O)CC2)cc1C(=O)N[C@@H]1[C@H]2CC[C@H](C2)[C@@H]1C(=O)NCC(=O)NC(C)C [Example 85]	50	< 3	15	920 (≈ 523 µg/mL)		> 9400
CCC1(CNC(=O)[C@H]2[C@@H]3CC[C@@H](C3)[C@H]2NC(=O)c2cc(O[C@H]3CC[C@@](C)(C(=O)O)CC3)c(C#N)cc2OC)CCC1 [Example 86]	4.1	64	26	540 (≈ 305 µg/mL)	115	20

— patent publication US11667602B2, “Compounds and their use” (AstraZeneca AB, priority 2020, dated 2023)
